Laboratory results published in patent US20200297711A1, “PHARMACEUTICAL COMPOSITION COMPRISING FGFR SELECTIVE TYROSINE KINASE INHIBITOR” (priority 2017, published 2020).
Marks after values point to notes of the source that are not given here.

Test: Pharmacokinetics in plasma following single dose and repeated doses of Compound A 1.5 succinate
Assay type: in vivo, human
Conditions: Compound B
Description: In order to evaluate the PK when administered as a single dose, a single dose of Compound A for each treatment group (at the corresponding dosage for that group) was administered on Day 1. Compound A was administered when fasted, immediately after waking up with at least 10 hours fasting. Taking any meal was prohibited for 2 hours after administration and only drinking water was allowed.
Cycle 1 was started between 8 and 10 days after dosing in Cycle 0 and Compound A was administered continuously once daily. Compound A was administered at least 2 hours after breakfast, and any food intake was prohibited for 1 hour after administration. However, on Day 8 of Cycle 1, Compound A was administered immediately after waking up while the subject was fasted after at least 10 hours of overnight fasting in order to evaluate the PK. Taking any meals was prohibited for 2 hours after administration and only drinking water was allowed.
Plasma concentration profile of Compound A following a single dose and repeated doses of Compound A 1.5 succinate are shown in FIG. 1 and FIG. 2, respectively. The profile shown in FIG. 2 is that at steady state.
(§1) The pharmacokinetic parameters of Compound A following the single dose and repeated doses of Compound A 1.5 succinate are shown in the following table. The pharmacokinetic parameters of Compound A following repeated doses of Compound A 1.5 succinate shown below are those at steady state.
as §1, with “1.5 succinate updated after obtaining the above data are shown” for “1.5 succinate are shown”
The pharmacokinetic parameters of Compound B following the single dose and repeated doses of Compound A 1.5 succinate are shown in the following table. The pharmacokinetic parameters of Compound B following repeated doses of Compound A 1.5 succinate shown below are those at steady state.

[1] = repeated once-daily doses of Compound A 30 mg, steady state (n = 2)
[2] = repeated once-daily doses of Compound A 60 mg, steady state (n = 2)
[3] = repeated once-daily doses of Compound A 100 mg, steady state (n = 3)
[4] = repeated once-daily doses of Compound A 140 mg, steady state (n = 3)
[5] = repeated once-daily doses of Compound A 180 mg, steady state (n = 3)
[6] = single dose of Compound A 30 mg (n = 2)
[7] = single dose of Compound A 60 mg (n = 3)
[8] = single dose of Compound A 100 mg (n = 3)
[9] = single dose of Compound A 140 mg (n = 3)
[10] = single dose of Compound A 180 mg (n = 3)

Q: What does the source list for `CNC(=O)n1ccc2cc(Oc3ccnc(NC(=O)c4ccc(C5CCNCC5)cc4)c3)c(OCCOC)cc21` [Compound B, 6-(2-Methoxyethoxy)-N-methyl-5-((2-(4-(piperidin-4-yl)benzamide)pyridin-4-yl)oxy)-1H-indole-1-carboxamide]?
A: AUC(0-t) [1]: 194 ng·h/mL; Cavg [1]: 7.71 ng/mL; Cmax [1]: 12.4 ng/mL; Cmin [1]: 5.19 ng/mL; tmax, median (minimum − maximum) [1]: 3.49 (1.97-5.00) h; AUC(0-t) [2]: 565 ^a^ h* ng/mL; Cavg [2]: 22.6 ^a ng/mL; Cmax [2]: 44.2 ^a ng/mL; Cmin [2]: 12.3 ^a ng/mL; tmax, median (minimum − maximum) [2]: 2.54 (2.07-3.00) ^a h; AUC(0-t) [3]: 805 ± 195 ng·h/mL; Cavg [3]: 32.3 ± 7.79 ng/mL; Cmax [3]: 55.4 ± 14.5 ng/mL; Cmin [3]: 17.4 ± 7.37 ng/mL; tmax, median (minimum − maximum) [3]: 5.00 (4.98-5.05) h; AUC(0-t) [4]: 1620 ± 460 ng·h/mL; Cavg [4]: 66.1 ± 18.8 ng/mL; Cmax [4]: 106 ± 51.8 ng/mL; Cmin [4]: 41.5 ± 10.9 ng/mL; tmax, median (minimum − maximum) [4]: 5.00 (2.98-5.08) h; AUC(0-t) [5]: 1500 ± 686 ng·h/mL; Cavg [5]: 60.4 ± 27.7 ng/mL; Cmax [5]: 98.0 ± 39.5 ng/mL; Cmin [5]: 32.8 ± 13.0 ng/mL; tmax, median (minimum − maximum) [5]: 5.00 (3.05-5.08) h; AUC(0-inf) [6]: 297 ng·h/mL; AUC(0-t) [6]: 274 ng·h/mL; Cmax [6]: 19.2 ng/mL; t1/2 [6]: 21.5 h; tmax, median (minimum − maximum) [6]: 3.59 (2.02-5.15) h; AUC(0-inf) [7]: 687 ± 354 ng·h/mL; AUC(0-t) [7]: 652 ± 352 ng·h/mL; Cmax [7]: 35.1 ± 19.1 ng/mL; t1/2 [7]: 26.1 ± 10.2 h; tmax, median (minimum − maximum) [7]: 4.98 (3.00-5.07) h; AUC(0-inf) [8]: 699 ± 163 ng·h/mL; AUC(0-t) [8]: 647 ± 153 ng·h/mL; Cmax [8]: 38.4 ± 4.36 ng/mL; t1/2 [8]: 20.0 ± 0.794 h; tmax, median (minimum − maximum) [8]: 4.95 (2.97-5.10) h; AUC(0-inf) [9]: 1410 ± 216 ng·h/mL; AUC(0-t) [9]: 1350 ± 233 ng·h/mL; Cmax [9]: 63.8 ± 36.1 ng/mL; t1/2 [9]: 40.50 ± 6.46 h; tmax, median (minimum − maximum) [9]: 5.00 (4.88-5.08) h; AUC(0-inf) [10]: 1370 ± 703 ng·h/mL; AUC(0-t) [10]: 1320 ± 693 ng·h/mL; Cmax [10]: 50.7 ± 20.7 ng/mL; t1/2 [10]: 39.9 ± 6.27 h; tmax, median (minimum − maximum) [10]: 5.00 (3.00-5.02) h
